Data as given in PubChem BioAssay AID248 (DTP/NCI, 2004).
Values joined by “and” are separate entries in the source; they are usually repeats but may differ in a detail not shown here. Equal entries are not always repeated. Toxic doses and inconclusive results are not listed. Rule as the data show it: active = T/C of 150% or more; inactive = T/C below 125%.

System: L1210 leukemia ip in BDF1 mice, survival T/C
Assay: NCI In Vivo Anticancer Drug Screen. Data for tumor model L1210 Leukemia (intraperitoneal) in B6D2F1 (BDF1) mice
Details: endpoint: mean survival time, higher = longer survival
Method in brief: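 Transplantable tumor model; survival measured in treated vs vehicle control mice. Value = treated/control.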

[1] = dose: 100.0 mg/kg/injection, schedule: Q01DX009 (ip), vehicle: Klucel (hydroxypropylcellulose) (HPC)
[2] = dose: 100.0 mg/kg/injection, schedule: Q04DX003 (ip), vehicle: Klucel (hydroxypropylcellulose) (HPC)
[3] = dose: 200.0 mg/kg/injection, schedule: Q01DX009 (ip), vehicle: Klucel (hydroxypropylcellulose) (HPC)
[4] = dose: 200.0 mg/kg/injection, schedule: Q04DX003 (ip), vehicle: Klucel (hydroxypropylcellulose) (HPC)
[5] = dose: 400.0 mg/kg/injection, schedule: Q01DX009 (ip), vehicle: Klucel (hydroxypropylcellulose) (HPC)
[6] = dose: 100.0 mg/kg/injection, schedule: Q04DX003 (ip), vehicle: saline with Tween-80
[7] = dose: 200.0 mg/kg/injection, schedule: Q04DX003 (ip), vehicle: saline with Tween-80
[8] = dose: 20.0 mg/kg/injection, schedule: Q01DX009 (ip), vehicle: saline with Tween-80
[9] = dose: 100.0 mg/kg/injection, schedule: Q01DX001 (ip), vehicle: saline
[10] = dose: 200.0 mg/kg/injection, schedule: Q01DX001 (ip), vehicle: saline
[11] = dose: 50.0 mg/kg/injection, schedule: Q01DX009 (ip), vehicle: saline with Tween-80
[12] = dose: 400.0 mg/kg/injection, schedule: Q04DX003 (ip), vehicle: saline with Tween-80
[13] = dose: 400.0 mg/kg/injection, schedule: Q01DX001 (ip), vehicle: saline
[14] = dose: 400.0 mg/kg/injection, schedule: Q04DX003 (ip), vehicle: Klucel (hydroxypropylcellulose) (HPC)
[15] = dose: 100.0 mg/kg/injection, schedule: Q04DX002 (ip), vehicle: Klucel (hydroxypropylcellulose) (HPC)
[16] = dose: 200.0 mg/kg/injection, schedule: Q04DX002 (ip), vehicle: Klucel (hydroxypropylcellulose) (HPC)
[17] = dose: 400.0 mg/kg/injection, schedule: Q04DX002 (ip), vehicle: Klucel (hydroxypropylcellulose) (HPC)
[18] = dose: 100.0 mg/kg/injection, schedule: Q01DX009 (ip), vehicle: saline with Tween-80
[19] = dose: 200.0 mg/kg/injection, schedule: Q01DX009 (ip), vehicle: saline with Tween-80
[20] = dose: 400.0 mg/kg/injection, schedule: Q01DX009 (ip), vehicle: saline with Tween-80

Measured: T/C

Cc1cccc([N+](=O)[O-])c1-c1ccccc1C(=O)O
inactive: dose: 50.0 mg/kg/injection, schedule: Q04DX003 (ip), vehicle: Klucel (hydroxypropylcellulose) (HPC) 88 % of control | [1] 93 % of control and 95 % of control | [2] 94 % of control | [3] 96 % of control and 103 % of control | [4] 100 % of control | [5] 97 % of control

COc1nccc2ccccc12
inactive: [6] 94 % of control | [7] 92 % of control

COC(=O)Nc1ccc(C(C)=O)cc1
inactive: [8] 95 % of control | dose: 40.0 mg/kg/injection, schedule: Q01DX009 (ip), vehicle: saline with Tween-80 91 % of control | dose: 80.0 mg/kg/injection, schedule: Q01DX009 (ip), vehicle: saline with Tween-80 93 % of control | dose: 160.0 mg/kg/injection, schedule: Q01DX009 (ip), vehicle: saline with Tween-80 101 % of control | dose: 320.0 mg/kg/injection, schedule: Q01DX009 (ip), vehicle: saline with Tween-80 90 % of control

C=C1CC[N+]2(C)CCCC12 (centres undefined)
inactive: dose: 12.5 mg/kg/injection, schedule: Q01DX009 (ip), vehicle: saline 100 % of control | dose: 25.0 mg/kg/injection, schedule: Q01DX009 (ip), vehicle: saline 113 % of control | dose: 50.0 mg/kg/injection, schedule: Q01DX009 (ip), vehicle: saline 95 % of control and 91 % of control

CC1(c2ccncc2)OCCO1
inactive: [9] 97 % of control | [10] 101 % of control

C/C(=C/C1CC(=O)OC1=O)CC(C)(C)C (centres undefined)
inactive: dose: 222.0 mg/kg/injection, schedule: Q01DX Z (ip), vehicle: methylcellulose (MC) 108 % of control | dose: 333.0 mg/kg/injection, schedule: Q01DX Z (ip), vehicle: methylcellulose (MC) 92 % of control

COc1cccc(/C=N/NC(=O)C[n+]2ccccc2)c1OC
inactive: dose: 25.0 mg/kg/injection, schedule: Q01DX009 (ip), vehicle: saline with Tween-80 98 % of control | [11] 106 % of control | [6] 113 % of control

CC(CCOS(C)(=O)=O)OS(C)(=O)=O (centres undefined)
inactive: [6] 112 % of control | [7] 107 % of control | [12] 88 % of control

C(=NCCCN1CCN(CCCN=Cc2ccc3c(c2)OCO3)CC1)c1ccc2c(c1)OCO2
inactive: dose: 25.0 mg/kg/injection, schedule: Q01DX Z (ip), vehicle: carboxymethylcellulose (CMC) 103 % of control | dose: 50.0 mg/kg/injection, schedule: Q01DX Z (ip), vehicle: carboxymethylcellulose (CMC) 109 % of control | dose: 100.0 mg/kg/injection, schedule: Q01DX Z (ip), vehicle: carboxymethylcellulose (CMC) 100 % of control | dose: 200.0 mg/kg/injection, schedule: Q01DX Z (ip), vehicle: carboxymethylcellulose (CMC) 97 % of control

Nc1nc2c(ncn2-c2ccc(OCCCOc3ccc(S(=O)(=O)F)cc3)cc2)c(=O)[nH]1
inactive: dose: 100.0 mg/kg/injection, schedule: Q01DX001 (ip), vehicle: Klucel (hydroxypropylcellulose) (HPC) 94 % of control | dose: 200.0 mg/kg/injection, schedule: Q01DX001 (ip), vehicle: Klucel (hydroxypropylcellulose) (HPC) 91 % of control

c1ccc2c(c1)ccc1[nH]c3ccccc3c12
inactive: [9] 120 % of control | [10] 96 % of control | [13] 93 % of control

NC(CCl)=NC1CCCCC1
inactive: dose: 25.0 mg/kg/injection, schedule: Q04DX002 (ip), vehicle: saline 106 % of control | dose: 50.0 mg/kg/injection, schedule: Q04DX002 (ip), vehicle: saline 100 % of control | dose: 100.0 mg/kg/injection, schedule: Q04DX002 (ip), vehicle: saline 110 % of control and 120 % of control

Cc1cc([N+](=O)[O-])ccc1S(N)(=O)=O
inactive: [2] 105 % of control | [4] 105 % of control | [14] 109 % of control

Cc1cccc(C)c1NC(=O)c1cccc(C(=O)Nc2c(C)cccc2C)c1
inactive: [1] 98 % of control | [2] 96 % of control | [3] 111 % of control | [4] 87 % of control | [5] 105 % of control | [14] 86 % of control

CCN(CC#CCOc1ccc(Cl)cc1Cl)c1ccccc1
inactive: [15] 109 % of control | [16] 98 % of control | [17] 102 % of control

CCOC(=O)C(C(=O)OCC)c1nc(=O)[nH]c(=O)[nH]1
inactive: dose: 100.0 mg/kg/injection, schedule: Q01DX Z (ip), vehicle: methylcellulose (MC) 97 % of control

CC(=O)N1Cc2ccc(/C=C(/C#N)C(N)=O)n2Cc2cc3c(cc21)OCO3
inactive: dose: 25.0 mg/kg/injection, schedule: Q04DX002 (ip), vehicle: Klucel (hydroxypropylcellulose) (HPC) 91 % of control | dose: 50.0 mg/kg/injection, schedule: Q04DX002 (ip), vehicle: Klucel (hydroxypropylcellulose) (HPC) 98 % of control | [15] 91 % of control

CCCCC1CCCCC1
inactive: [18] 106 % of control | [19] 98 % of control | [20] 96 % of control

Nc1n[nH]c2cc(=O)[nH]c(O)c12
inactive: dose: 75.0 mg/kg/injection, schedule: Q01DX001 (ip), vehicle: saline 98 % of control | dose: 150.0 mg/kg/injection, schedule: Q01DX001 (ip), vehicle: saline 93 % of control | dose: 300.0 mg/kg/injection, schedule: Q01DX001 (ip), vehicle: saline 94 % of control

Nc1ccccc1CCc1ccccc1N
inactive: [18] 98 % of control | [19] 98 % of control | [20] 94 % of control

[O-][n+]1onc2c(-c3ccccc3)nnc(-c3ccccc3)c21
inactive: [6] 108 % of control | [7] 110 % of control | [12] 111 % of control

Cc1cccc(NC(=O)Nc2cccc(C(F)(F)F)c2)n1
inactive: dose: 100.0 mg/kg/injection, schedule: Q01DX009 (ip), vehicle: gum acacia 92 % of control | dose: 200.0 mg/kg/injection, schedule: Q01DX009 (ip), vehicle: gum acacia 87 % of control | dose: 400.0 mg/kg/injection, schedule: Q01DX009 (ip), vehicle: gum acacia 89 % of control

CC(C)C1(c2ccsc2)NC(=O)NC1=O (centres undefined)
inactive: [9] 94 % of control | [10] 100 % of control | [13] 91 % of control

Nc1ccc2c(c1)oc1ccccc12
inactive: [15] 107 % of control | [16] 103 % of control | [17] 110 % of control

CC(=O)N/N=C/c1ccc2c(c1)CCC2
inactive: [6] 97 % of control | [7] 103 % of control

COc1ccc(CCNC(=O)Cc2ccccc2)cc1OC
inactive: [11] 90 % of control | [18] 93 % of control | [6] 92 % of control | [19] 94 % of control and 96 % of control | [7] 92 % of control | [20] 99 % of control

CN(C)C=Nc1ccc([N+](=O)[O-])cc1
inactive: dose: 50.0 mg/kg/injection, schedule: Q01DX001 (ip), vehicle: saline 89 % of control | [9] 89 % of control | [18] 96 % of control | [10] 96 % of control | [19] 89 % of control | [13] 91 % of control | [20] 90 % of control

CC(=O)c1ccc2c(c1)Cc1cc(Br)ccc1-2
inactive: dose: 100.0 mg/kg/injection, schedule: Q01DX001 (ip), vehicle: carboxymethylcellulose (CMC) 97 % of control | dose: 200.0 mg/kg/injection, schedule: Q01DX001 (ip), vehicle: carboxymethylcellulose (CMC) 89 % of control | dose: 400.0 mg/kg/injection, schedule: Q01DX001 (ip), vehicle: carboxymethylcellulose (CMC) 97 % of control

CCCOCC(O)C[As](=O)(O)c1cccc(Cl)c1 (centres undefined)
inactive: dose: 6.25 mg/kg/injection, schedule: Q01DX001 (ip), vehicle: saline with Tween-80 104 % of control | dose: 12.5 mg/kg/injection, schedule: Q01DX001 (ip), vehicle: saline with Tween-80 102 % of control | dose: 25.0 mg/kg/injection, schedule: Q01DX001 (ip), vehicle: saline with Tween-80 100 % of control

Oc1cccc(C(c2ccccc2)c2ccccc2)c1
inactive: dose: 100.0 mg/kg/injection, schedule: Q01DX001 (ip), vehicle: saline with Tween-80 94 % of control | dose: 200.0 mg/kg/injection, schedule: Q01DX001 (ip), vehicle: saline with Tween-80 94 % of control

O=C1c2ccccc2C(=O)N1CNc1ccccc1S
inactive: [1] 100 % of control | [3] 104 % of control | [5] 109 % of control

NC1CCCCCCC1O (centres undefined)
inactive: dose: 5.0 mg/kg/injection, schedule: Q01DX009 (ip), vehicle: saline with Tween-80 105 % of control | dose: 10.0 mg/kg/injection, schedule: Q01DX009 (ip), vehicle: saline with Tween-80 94 % of control | [8] 100 % of control
